pEC50: −log10 of the molar value.
Key:
FSHR = biological target: T1, FSHR (Homo sapiens, UniProt P23945); test: EC50 of cyclic AMP production in CHO FSHR cells + EC20 FSH (Assay A); format: cell-based; conditions: CHO-FSHR-LUC cells, in presence of EC20 FSH, cAMP HTRF, 1 h 37° C.
T1 construct: expressed in transfected cells; host or cells: CHO cells, clone Cho-FSHR-LUC-1-1-43
T1 sequence (P23945 18-695): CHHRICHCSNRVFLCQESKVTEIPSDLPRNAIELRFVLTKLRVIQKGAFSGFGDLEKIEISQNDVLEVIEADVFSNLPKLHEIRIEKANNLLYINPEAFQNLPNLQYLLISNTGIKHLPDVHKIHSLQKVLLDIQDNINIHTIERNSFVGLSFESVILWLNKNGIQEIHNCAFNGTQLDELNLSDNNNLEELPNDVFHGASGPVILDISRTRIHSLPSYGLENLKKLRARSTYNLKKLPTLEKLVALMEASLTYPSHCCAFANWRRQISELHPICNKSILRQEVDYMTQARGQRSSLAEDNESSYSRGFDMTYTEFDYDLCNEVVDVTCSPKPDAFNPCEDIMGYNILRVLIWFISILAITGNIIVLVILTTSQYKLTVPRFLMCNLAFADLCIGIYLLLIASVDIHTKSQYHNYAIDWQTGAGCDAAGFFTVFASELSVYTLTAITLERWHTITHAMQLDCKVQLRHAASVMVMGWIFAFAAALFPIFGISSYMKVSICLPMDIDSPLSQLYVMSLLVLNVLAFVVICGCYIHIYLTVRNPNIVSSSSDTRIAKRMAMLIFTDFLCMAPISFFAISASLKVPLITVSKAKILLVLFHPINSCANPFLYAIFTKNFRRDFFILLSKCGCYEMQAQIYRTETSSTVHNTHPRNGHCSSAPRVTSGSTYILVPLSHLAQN

[1] = biological target: T2, follicle-stimulating hormone (FSH) receptor (Rattus norvegicus, UniProt P20395); test: Rat Granulosa EC50 FSH (Assay B); format: cell-based; conditions: rat granulosa cells, per Yanofsky et al. 2006
T2 construct: Rat Granulosa EC50 FSH (Assay B); endogenous in cells; host or cells: rat granulosa cells
T2 sequence (P20395 18-692): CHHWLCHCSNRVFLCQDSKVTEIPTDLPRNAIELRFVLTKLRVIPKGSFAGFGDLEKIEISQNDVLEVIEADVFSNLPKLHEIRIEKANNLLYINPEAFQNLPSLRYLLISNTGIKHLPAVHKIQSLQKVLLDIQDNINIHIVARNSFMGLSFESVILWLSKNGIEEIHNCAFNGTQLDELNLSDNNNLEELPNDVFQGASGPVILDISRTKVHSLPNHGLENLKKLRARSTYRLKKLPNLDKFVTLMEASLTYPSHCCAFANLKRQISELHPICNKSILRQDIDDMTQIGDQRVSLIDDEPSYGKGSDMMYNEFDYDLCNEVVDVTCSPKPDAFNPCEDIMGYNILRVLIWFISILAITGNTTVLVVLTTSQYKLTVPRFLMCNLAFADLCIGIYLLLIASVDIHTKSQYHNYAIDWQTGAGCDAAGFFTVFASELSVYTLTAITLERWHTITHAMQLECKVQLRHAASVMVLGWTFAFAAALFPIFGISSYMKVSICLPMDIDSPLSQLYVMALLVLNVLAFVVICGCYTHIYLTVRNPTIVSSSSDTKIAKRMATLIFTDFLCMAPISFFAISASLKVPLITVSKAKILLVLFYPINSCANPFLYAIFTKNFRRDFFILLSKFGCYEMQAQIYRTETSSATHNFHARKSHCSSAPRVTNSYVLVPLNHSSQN

| SMILES | pEC50 (FSHR) | pEC50 [1] |
| --- | --- | --- |
| COc1cc2c(cc1CC(C)C)-n1c(S(=O)(=O)C3CC3)nc(C(=O)N(C)C(C)(C)C)c1CC2 [Compound 34, 1-Cyclopropanesulfonyl-8-isobutyl-7-methoxy-4,5-dihydro-imidazo[1,5-a]quinoline-3-carboxylic acid tert-butyl-methyl-amide] | 6.00 to 7.00 | 5.30 to 6.00 |
| COc1cc2c(cc1OC(C)C)-n1c(-c3cccs3)nc(C(=O)N(C)C(C)(C)C)c1CC2 [Compound 11, 8-Isopropoxy-7-methoxy-1-thiophen-2-yl-4,5-dihydro-imidazo[1,5-a]quinoline-3-carboxylic acid tert-butyl-methyl-amide] | 6.00 to 7.00 | < 5.30 |
| COc1cc2c(cc1CC(C)C)-n1c(-c3cccs3)nc(C(=O)N(C)CCN3CCOC3=O)c1CC2 [Compound 25, 8-Isobutyl-7-methoxy-1-thiophen-2-yl-4,5-dihydro-imidazo[1,5-a]quinoline-3-carboxylic acid methyl-[2-(2-oxo-oxazolidin-3-yl)-ethyl]-amide] | > 7.00 | 6.00 to 7.00 |
| COc1cc2c(cc1OC(C)C)-n1c(-c3cccc(Cl)c3)nc(C(=O)N3CCOCC3(C)C)c1CC2 [Compound 44] | 6.00 to 7.00 | < 5.30 |
| COc1cc2c(cc1CC(C)C)-n1c(-c3ccc(C)s3)nc(C(=O)N(C)C(C)(C)C)c1CC2 [Compound 96, 8-Isobutyl-7-methoxy-1-(5-methyl-thiophen-2-yl)-4,5-dihydro-imidazo[1,5-a]quinoline-3-carboxylic acid tert-butyl-methyl-amide] | 6.00 to 7.00 | 5.30 to 6.00 |
| COc1cc2c(cc1OC(C)C)-n1c(-c3ccc(F)c(F)c3)nc(C(=O)N3CCOCC3(C)C)c1CC2 [Compound 102] | 6.00 to 7.00 | 5.30 to 6.00 |
| COc1cc2c(cc1OC(C)C)-n1c(C3=CCCC3)nc(C(=O)N3CCOCC3(C)C)c1CC2 [Compound 49] | 6.00 to 7.00 | < 5.30 |
| COc1cc2c(cc1-c1ccn(C)n1)-n1c(-c3cccc(Cl)c3)nc(C(=O)N3CCOCC3(C)C)c1CC2 [Compound 148, (1-(3-chlorophenyl)-7-methoxy-8-(1-methyl-1H-pyrazol-3-yl)-4,5-dihydroimidazo[1,5-a]quinolin-3-yl)(3,3-dimethylmorpholino)methanone] | 6.00 to 7.00 | 5.30 to 6.00 |
| [2H]C([2H])([2H])N(CCN(C(=O)c1nc(-c2cccs2)n2c1CCc1cc(OC)c(CC(C)C)cc1-2)C([2H])([2H])[2H])C(C)=O [Compound 31, 8-Isobutyl-7-methoxy-1-thiophen-2-yl-4,5-dihydro-imidazo[1,5-a]quinoline-3-carboxylic acid [2-(acetyl-methyl-d3-amino)-ethyl]-methyl-d3-amide] | 6.00 to 7.00 | < 5.30 |
| COc1cc2c(cc1CC(C)C)-n1c(-c3ccc(F)s3)nc(C(=O)N3CCOCC3(C)C)c1CC2 [Compound 19, (3,3-Dimethyl-morpholin-4-yl)-[1-(5-fluoro-thiophen-2-yl)-8-isobutyl-7-methoxy-4,5-dihydro-imidazo[1,5-a]quinolin-3-yl]-methanone] | > 7.00 | 6.00 to 7.00 |
| COc1cc2c(cc1OC(C)C)-n1c(-c3cccs3)nc(C(=O)N3CCOCC3(C)C)c1CO2 [Compound 139, (3,3-Dimethyl-morpholin-4-yl)-(8-isopropoxy-7-methoxy-1-thiophen-2-yl-4H-5-oxa-2,9b-diaza-cyclopenta[a]naphthalen-3-yl)-methanone] | > 7.00 | 6.00 to 7.00 |
| COc1cccc(-c2nc(C(=O)N3CCOCC3(C)C)c3n2-c2cc(OC(C)C)c(OC)cc2CC3)c1 [Compound 115] | 6.00 to 7.00 |  |
| COc1cc2c(cc1OC(C)C)-n1c(-c3ccc(Cl)c(F)c3)nc(C(=O)N3CCOCC3(C)C)c1CC2 [Compound 109] | 6.00 to 7.00 |  |
| COc1cc2c(cc1OC(C)C)-n1c(-c3cn(C)cn3)nc(C(=O)N3CCOCC3(C)C)c1CC2 [Compound 46] | < 5.30 |  |
| COc1cc2c(cc1CC(C)C)-n1c(-c3cccs3)nc(C(=O)N3CCOCC3(C)C)c1CC2 [Compound 20, (3,3-Dimethyl-morpholin-4-yl)-(8-isobutyl-7-methoxy-1-thiophen-2-yl-4,5-dihydro-imidazo[1,5-a]quinolin-3-yl)-methanone] | > 7.00 |  |

The next lines start with the values.

| pEC50 (FSHR) | pEC50 [1] | SMILES |
| --- | --- | --- |
| > 7.00 | 5.30 to 6.00 | [2H]C([2H])([2H])Oc1cc2c(cc1CC(C)C)-n1c(-c3ccsc3)nc(C(=O)N3CCOCC3(C)C)c1CC2 [Compound 41, (3,3-Dimethyl-morpholin-4-yl)-(8-isobutyl-7-methoxy-d3-1-thiophen-3-yl-4,5-dihydro-imidazo[1,5-a]quinolin-3-yl)-methanone] |
| > 7.00 | 6.00 to 7.00 | COc1cc2c(cc1OC(C)C)-n1c(-c3ccc(F)s3)nc(C(=O)N3CCOCC3(C)C)c1CC2 [Compound 59] |
| > 7.00 | 5.30 to 6.00 | [2H]C([2H])([2H])Oc1cc2c(cc1CC(C)C)-n1c(-c3cccs3)nc(C(=O)N(C)C(C)(C)C)c1CC2 [Compound 53, 8-Isobutyl-7-methoxy-d3-1-thiophen-2-yl-4,5-dihydro-imidazo[1,5-a]quinoline-3-carboxylic acid tert-butyl-methyl-amide] |
| > 7.00 | 5.30 to 6.00 | [2H]C([2H])([2H])n1cc(-c2cc3c(cc2OC)CCc2c(C(=O)N4CCOCC4(C)C)nc(-c4cccn4C)n2-3)cn1 [Compound 149, (3,3-dimethylmorpholino)(7-methoxy-8-(1-methyl-1H pyrazol-4-yl)-1-(1-methyl-1H-pyrrol-2-yl)-4,5-dihydroimidazo[1,5-a]quinolin-3-yl)methanone] |
| > 7.00 | 6.00 to 7.00 | COc1cc2c(cc1OC(C)C)-n1c(-c3cc(Cl)cs3)nc(C(=O)N3CCOCC3(C)C)c1CC2 [Compound 114] |
| > 7.00 | 6.00 to 7.00 | COc1cc2c(cc1-c1c[nH]nc1C)-n1c(-c3ccsc3)nc(C(=O)N(C)C(C)(C)C)c1CC2 [Compound 76, 7-Methoxy-8-(3-methyl-1H-pyrazol-4-yl)-1-thiophen-3-yl-4,5-dihydro-imidazo+1,5-a+quinoline-3-carboxylic acid tert-butyl-methyl-amide] |
| > 7.00 | 6.00 to 7.00 | COc1cc2c(cc1OC(C)C)-n1c(-c3cc(Cl)cc(Cl)c3)nc(C(=O)N3CCOCC3(C)C)c1CC2 [Compound 110] |
| > 7.00 | 6.00 to 7.00 | COc1cc2c(cc1-c1cnn(C)c1)-n1c(-c3cccs3)nc(C(=O)N3CCOCC3(C)C)c1CC2 [Compound 75, (3,3-Dimethyl-morpholin-4-yl)-[7-methoxy-8-(1-methyl-1H-pyrazol-4-yl)-1-thiophen-2-yl-4,5-dihydro-imidazo[1,5-a]quinolin-3-yl]-methanone] |
| > 7.00 | 5.30 to 6.00 | COc1cc2c(cc1CC(C)C)-n1c(-c3ccc(F)s3)nc(C(=O)N(C)C(C)(C)C)c1CC2 [Compound 21, 1-(5-Fluoro-thiophen-2-yl)-8-isobutyl-7-methoxy-4,5-dihydro-imidazo[1,5-a]quinoline-3-carboxylic acid tert-butyl-methyl-amide] |
| > 7.00 | < 5.30 | [2H]C([2H])([2H])OCC(C)(C)N(C(=O)c1nc(-c2cccs2)n2c1CCc1cc(OC)c(CC(C)C)cc1-2)C([2H])([2H])[2H] [Compound 32, 8-Isobutyl-7-methoxy-1-thiophen-2-yl-4,5-dihydro-imidazo[1,5-a]quinoline-3-carboxylic acid (2-methoxy-d3-1,1-dimethyl-ethyl)-methyl-d3-amide] |
| > 7.00 | 6.00 to 7.00 | COc1cc2c(cc1OC(C)C)-n1c(-c3ccc(C)s3)nc(C(=O)N3CCOCC3(C)C)c1CC2 [Compound 71] |
| > 7.00 | 5.30 to 6.00 | COc1cc2c(cc1OC(C)C)-n1c(-c3cc(C)cs3)nc(C(=O)N3CCOCC3(C)C)c1CC2 [Compound 70] |
| > 7.00 | > 7.00 | COc1cc2c(cc1OC(C)C)-n1c(-c3ccc(Cl)s3)nc(C(=O)N3CCOCC3(C)C)c1CC2 [Compound 72] |
